From patent US8173840B2, “Compounds with high therapeutic index” (Signature R&D Holdings, LLC, priority 2003, dated 2012)

What was measured:
human volunteers = assay: Analgesic and anti-inflammatory effects of S(+)Ibuprofen-L-Threonine Ester in human volunteers; assay type: in vivo
Protocol: Determination of the analgesic and anti-inflammatory effects of S(+)Ibuprofen-L-Threonine Ester in three human volunteers was conducted as follows:
Two male, age 49 and 50 having severe headache took 1 capsule containing S(+)Ibuprofen-L-Threonine Ester manufacturing and formulation under GMP conditions. The capsule contents were equivalent to 200 mg of racemic Ibuprofen. Relief from headache was reported after 15 min, and complete absence of any pain from headache was reported at the end of 1 hour, which lasted for another 12 hours.
Two males age 49 and 51 took 1 capsule each containing S(+)IbuprofenL-Threonine ester for arthritic knee pain, which was perceptible. […] Such amolearation of pain was further sustained for another 24 hours.

Swiss Albino Mice = assay: 28-day chronic toxicity study of ibuprofen esters; details: 28 days
Description: Randomization was done by the method of stratified randomization procedure using SAS software program (Version 8.2) with stratification by bodyweight.
The duration of dosing was 28 days. All the animals were daily tested until the end of the study for the presence/absence of clinical symptoms of toxicity. Cage side observations included changes in the skin, eyes, posture, gait, respiration and behavior pattern. The incidence of twitching, tremors, convulsions, salivation, diarrhea and death if any, were also recorded.

[1] = system: fasted male albino rats (Wistar strain); assay: Gastric mucosal irritation potential of ibuprofen esters; assay type: in vivo, rat; details: two dose levels, 200 mg and 300 mg/kg
Protocol: The study was conducted at two dose levels viz. 200 mg and 300 mg/kg body weight along with a vehicle control group. At each dose level 5 animals were used.
The test item was administered as a single dose by gavage. Three hours after drug administration, the animals were killed humanely by CO2 gas inhalation. The stomach was dissected out and observed for • the quantity of mucous exudate, • degree of hyperemia and thickening of stomach wall, • hemorrhagic spots (focal or diffuse), nature of hemorrhages (petechial or ecchymotic) along with the size and • perforations or any other lesions

[2] = system: male albino mice (Swiss strain); assay: Acetylcholine induced abdominal constriction (writhe) method; assay type: in vivo, mouse; details: gavage
Protocol: Ibuprofen (racemic mixture) and ibuprofen (S)-(+) served as reference controls.
The study was conducted at two dose levels viz. 50 mg and 100 mg/kg body weight along with a vehicle control group. At each dose level 10 animals were used. All the doses were expressed as ibuprofen molar equivalents. The doses used as well as the molar equivalents are presented below.
The efficacy in terms of antagonizing effect on acetylcholine induced single writhe at two dose levels—50.0 and 100.0 mg/kg for the three formulations and reference controls are presented below.

[3] = system: Spontaneously Hypertensive Rats (SHRs); assay: Hemodynamics in Spontaneously Hypertensive Rats; assay type: in vivo, rat
Protocol: ACE inhibitors have been known to be useful in antihypertensive therapy for many years. Some ACE inhibitors are delivered orally as the parent drug (captopril) while others are delivered as pro-drugs in order to obtain clinically useful plasma concentrations. This study provides data on the effect of these various enalapril derivatives on hemodynamics in SHRs when given orally and compared to enalapril.
Briefly, SHRs fitted with right carotid catheters were orally gavaged with 100 mg/kg enalapril or equivalent does of the enalapril derivatives, and the blood pressures were followed continuously up to 3 hours and then a measurement at 24 hours. The animals were conscious throughout the procedure and were placed in a restrainer and hooked up to a pressure transducer and a signal processor. After 3 hours, the animals were placed back into their cage, and blood pressure was finally measured again at 24 hours.

[4] = 1 capsule equivalent to 200 mg racemic Ibuprofen
[5] = 50.0 mg/kg in terms of Ibuprofen
[6] = 100.0 mg/kg in terms of Ibuprofen

## CC(C)Cc1ccc([C@H](C)C(=O)O[C@H](C)[C@H](N)C(=O)O)cc1.Cl [S-(+)-Ibuprofen-L-threonine ester, 2(S)-Amino-3(R)-[2(S)-(4-isobutyl-phenyl)-propionyloxy]-butyric acid]
Human volunteers; 1 capsule
  amelioration of knee pain sustained for another: 24 h
Human volunteers; [4]
  absence of headache pain lasted for another: 12 h
  complete absence of any pain from headache reported at the end of: 1 h
Human volunteers; 1 capsule equivalent to 200 mg racemic Ibuprofen, two males with severe headache
  relief from headache reported after: 15 min
Human volunteers; 1 capsule, two males, after 12 hours
  arthritic knee pain: significant reduction is the pain associated with their right knee
Swiss Albino Mice; 10 animals per group
  No of animals survived: 10
Swiss Albino Mice; both sexes
  animals that died: none of the animals
Swiss Albino Mice; Female
  Mortality: Nil
Swiss Albino Mice; Male
  Mortality: Nil
Swiss Albino Mice; surviving animals
  Average Change In body Weight: −0.68 gms
  Percentage Change of body weight: −3.61%
[1]
  irritation of gastric mucosa: significantly and completely non-toxic to GI mucosa in the rats tested
[2]; [5]
  Number of animals showing absence of single writhe (number of animals per dose = 10), One hour after dosing: 1
  Number of animals showing absence of single writhe (number of animals per dose = 10), Three hours after dosing: 0
[2]; [6]
  Number of animals showing absence of single writhe (number of animals per dose = 10), One hour after dosing: 3
  Number of animals showing absence of single writhe (number of animals per dose = 10), Three hours after dosing: 0

## CCOC(=O)[C@H](CCc1ccccc1)N[C@@H](C)C(=O)N1CCC[C@H]1C(=O)O [Enalapril]
[3]; 100 mg/kg oral gavage, at 3 hours and 24 hours
  reduction of blood pressure: approximately 20%
[3]; oral, 100 mg/kg enalapril or equivalent doses
  arterial blood pressure: reduced arterial blood pressure
